Experimental data: the supplement of paper PMC5908809

What was measured:
KAI3 (IL-2 2.5 ng/mL) [1] = experiment: percent inhibition of viability; higher = more inhibition; conditions: 72 h
[2] = tested on: normal primary NK cells, pool 1 (3 donors), resting (IL-2 0 ng/mL); experiment: as above; conditions: 72 h
SNK-6 (IL-2 2.5 ng/mL) [3] = experiment: as above; conditions: 72 h
IMC-1 (IL-2 20 ng/mL) [4] = experiment: as above; conditions: 72 h
NK-YS (IL-2 2.5 ng/mL) [5] = experiment: as above; conditions: 72 h
NKL (IL-2 2.5 ng/mL) [6] = experiment: as above; conditions: 72 h
NK-92 (IL-2 2.5 ng/mL) [7] = experiment: as above; conditions: 72 h
[8] = tested on: normal primary NK cells, pool 3 (3 donors) (IL-2 2.5 ng/mL); experiment: as above; conditions: 72 h
YT (IL-2 2.5 ng/mL) [9] = experiment: as above; conditions: 72 h
[10] = tested on: normal primary NK cells, pool 1 (3 donors) (IL-2 2.5 ng/mL); experiment: as above; conditions: 72 h
DERL-7 (IL-2 2.5 ng/mL) [11] = experiment: as above; conditions: 72 h
KHYG-1 (IL-2 2.5 ng/mL) [12] = experiment: as above; conditions: 72 h
[13] = tested on: normal primary NK cells, pool 2 (3 donors) (IL-2 2.5 ng/mL); experiment: as above; conditions: 72 h
[14] = tested on: normal NK cells expanded with K562-aAPC; experiment: as above; conditions: 72 h, IL-2 2.5 ng/mL
Experimental: (§1)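 Drug sensitivity and resistance testing on K562-aAPC-expanded normal NK cells: 5 concentrations (10-fold steps over a 10,000-fold range), 72 h at 37 °C, viability by CellTiter-Glo normalised to DMSO and benzethonium chloride controls; DSS from the fitted curve.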

KAI3 (IL-2 2.5 ng/mL) [15] = experiment: drug sensitivity score (DSS) (DSS units); higher = more sensitive; extreme values may be limits of the assay; conditions: 72 h
[16] = tested on: normal primary NK cells, pool 1 (3 donors), resting (IL-2 0 ng/mL); experiment: as above; conditions: 72 h
SNK-6 (IL-2 2.5 ng/mL) [17] = experiment: as above; conditions: 72 h
IMC-1 (IL-2 20 ng/mL) [18] = experiment: as above; conditions: 72 h
NK-YS (IL-2 2.5 ng/mL) [19] = experiment: as above; conditions: 72 h
NKL (IL-2 2.5 ng/mL) [20] = experiment: as above; conditions: 72 h
NK-92 (IL-2 2.5 ng/mL) [21] = experiment: as above; conditions: 72 h
[22] = tested on: normal primary NK cells, pool 3 (3 donors) (IL-2 2.5 ng/mL); experiment: as above; conditions: 72 h
YT (IL-2 2.5 ng/mL) [23] = experiment: as above; conditions: 72 h
[24] = tested on: normal primary NK cells, pool 1 (3 donors) (IL-2 2.5 ng/mL); experiment: as above; conditions: 72 h
DERL-7 (IL-2 2.5 ng/mL) [25] = experiment: as above; conditions: 72 h
KHYG-1 (IL-2 2.5 ng/mL) [26] = experiment: as above; conditions: 72 h
[27] = tested on: normal primary NK cells, pool 2 (3 donors) (IL-2 2.5 ng/mL); experiment: as above; conditions: 72 h
[28] = tested on: normal NK cells expanded with K562-aAPC; experiment: as above; conditions: 72 h; IL-2 2.5 ng/mL
Experimental: as §1

CCS(=O)(=O)c1cccc(-c2cc(C(=O)NC3CCN(C)CC3)c(C)c3[nH]c4ncc(C)cc4c23)c1 [TAK-901] (max concentration tested 1000 nM)
percent inhibition of viability [%]
Conditions | 0.1 nM | 1 nM | 10 nM | 100 nM | 1000 nM
DERL-7 (IL-2 2.5 ng/mL) [11] | -2.6 | 5.56 | -0.1 | 67.8 | 79.7
IMC-1 (IL-2 20 ng/mL) [4] | -1.14 | 1.82 | -2.81 | 39.8 | 96.9
KAI3 (IL-2 2.5 ng/mL) [1] | 1.13 | 2.62 | 9.88 | 32.9 | 77.5
KHYG-1 (IL-2 2.5 ng/mL) [12] | -0.42 | -4.46 | -1.82 | 9.29 | 69
NK-92 (IL-2 2.5 ng/mL) [7] | -8.6 | -16.9 | -4.19 | -5.4 | 6
NK-YS (IL-2 2.5 ng/mL) [5] | -2.75 | -0.83 | 5.54 | 65.6 | 70.5
NKL (IL-2 2.5 ng/mL) [6] | -9.65 | -9.74 | -13.2 | 31.8 | 67.5
SNK-6 (IL-2 2.5 ng/mL) [3] | 6.55 | 11.7 | 6.25 | 25.7 | 70.1
YT (IL-2 2.5 ng/mL) [9] | 0.92 | -0.2 | 0.62 | 11.9 | 28.7
[2] | -2.04 | -13.9 | 9.75 | -5.23 | 39.3
[8] | 1.04 | -10.9 | -10.6 | -10.1 | 8.18
[10] | -7.61 | -7.94 | 3.96 | 1 | 52
[13] | -4.84 | -2.84 | -10.5 | -3.4 | 24.9
[14] | -4.46 | -2.36 | -2.68 | 2.78 | 47.6

Conditions | drug sensitivity score
DERL-7 (IL-2 2.5 ng/mL) [25] | 12.5
IMC-1 (IL-2 20 ng/mL) [18] | 10.6
KAI3 (IL-2 2.5 ng/mL) [15] | 8.03
KHYG-1 (IL-2 2.5 ng/mL) [26] | 5.36
NK-92 (IL-2 2.5 ng/mL) [21] | 0
NK-YS (IL-2 2.5 ng/mL) [19] | 12.9
NKL (IL-2 2.5 ng/mL) [20] | 7.8
SNK-6 (IL-2 2.5 ng/mL) [17] | 6.86
YT (IL-2 2.5 ng/mL) [23] | 2.64
[16] | 1.6
[22] | 0
[24] | 2.88
[27] | 0.75
[28] | 2.88
